Usually Kd stands for the equilibrium constant for the complex coming apart. Read a low Kd as a tighter complex. In general, inhibition refers to the change of the read-out against control, counted positive when it falls. Higher therefore signals strong suppression. The term IC50 denotes the concentration needed to halve the response being measured.

The subject of one data set is NSCLC cells. Nature of the data set: Transwell migration assay. The format is cell-based, human. The following applies: concentration-dependent, 8-12 h after treatment.
Data set [1] relates to Src. Nature of the data set: KINOMEscan competition binding assay. On the set-up: species or system human. Here is the method:
(§1) Kd values were obtained by KINOMEscan from DiscoverX (San Diego, CA, USA). To briefly summarize, Kd was measured by a competition binding assay that quantitatively measures the ability of a compound to compete with an immobilized ligand. […] Dose response curves of 11 points are obtained for Kd values, which are measured in duplicate. See more details in the cited references [39]-[42] and see also at www.discoverx.com.

For a further data set, the target named is AXL. Kind of data set: KINOMEscan competition binding assay. On the set-up: species or system human. Here is the method: as §1
In the next data set the target is IGF-1R. Kind of data set: KINOMEscan competition binding assay. Further details: species or system human. As to the method:
as §1

In data set [2] the test system is H1944 and A549 xenograft tumors. Nature of the data set: NSCLC xenograft tumor model. The format is in vivo, NOD/SCID mice. The note with it: 80 mg/kg. As to the method:
All animal experiments were performed according to protocols approved by the Seoul National University Institutional Animal Care and Use Committee. Mice were fed standard mouse chow and water ad libitum and housed in temperature- and humidity-controlled facilities with a 12-h light/12-h dark cycle. For xenograft experiments, H1944 and A549 cells (1×10^6 cells/spot, diluted in equal amounts of PBS and Matrigel) were subcutaneously injected into the right flank of 6-week-old non-obese diabetic-severe combined immunodeficiency (NOD/SCID) mice. After the tumor volume reached 50-150 mm^3, the mice were randomly grouped and treated with vehicle [10% DMSO in 60% polyethylene glycol (PEG) 400 solution] or LL6 (80 mg/kg) 6 days per week for 2 weeks. Tumor growth was determined by measuring the short and long diameters of the tumor with a caliper, and body weight was measured once or twice per week to monitor toxicity. Additionally, to evaluate the effect of LL6 on mutant Kras-driven lung tumorigenesis, 2-month-old Kras^G12D/+ transgenic mice were randomized and treated with vehicle or LL6 (80 mg/kg) for 8 weeks. The mice were euthanized, and tumor formation was evaluated and compared with that of the vehicle-treated control group. Microscopic evaluations of the H&E-stained lung tissue were also performed to measure mean tumor number (N) and volume (V) in a blinded fashion. The number and size of tumors were calculated in five sections uniformly distributed throughout each lung. In both animal experiments, the tumor volume and burden of each sample were calculated using the following formulas: Tumor volume (mm^3) = (short diameter)^2 × (long diameter) × 0.5; Tumor burden (mm^3) = number of tumors × the average of tumor volume.

A short description of another data set: Glucose tolerance test. Format: in vivo. The note with it: LL6-administered mice vs vehicle-treated mice. As to the method:
Glucose tolerance tests were performed as described in the previously published literature.

Data set [3] has as its system Src. Kind of data set: Western blot, phosphorylation of Src in H1944 and A549 cells. The note with it: 2.5 μM. Format: cell-based, human. In general terms: A western blot detects proteins with antibodies after separation by electrophoresis.
Protocol: Before harvesting, the cells were stimulated with 10% FBS for 20 min. […] Equal amounts of protein (20 μg) were subjected to 8% SDS-PAGE and electrically transferred onto polyvinylidene difluoride membranes (Bio-Rad Laboratories, Hercules, CA, USA). Membranes were blocked with blocking buffer (3% BSA in Tris-buffered saline containing 0.1% Tween-20 [TBST]) for 1 h at room temperature. The membranes were incubated with primary antibodies diluted in 3% BSA in TBST (1:1,000) overnight at 4 °C, washed multiple times with TBST, and incubated with secondary antibodies diluted in 3% nonfat dry milk in TBST (1:5,000) for 1 h at room temperature. The membranes were washed multiple times with TBST and visualized using an enhanced chemiluminescence detection kit (Thermo Fisher Scientific). Densitometric analysis was performed using ImageJ software.
In the next data set the test system is HCC15 cells. Kind of data set: MTT assay, viability of HCC15 cells. The format is cell-based. The following applies: Homo sapiens, 72 h, three days, read-out: IC50 against the viability. Here is the method:
(§2) Cells were seeded into 96-well plates at a density of 1-2 × 10^3 cells/well and incubated for 24 h. Cells were treated with vehicle or various concentrations of test compounds for two (PC9 and PC9/ER cells) or three (other cells) days. Cells were further incubated with MTT solution (final concentration of 500 μg/mL) for 4 h at 37 °C. The formazan products were dissolved in dimethyl sulfoxide (DMSO), and the absorbance was measured at 570 nm. The data are presented as a percentage of the control group.
For orientation: Tetrazolium dyes change colour on reduction, which living cells bring about.

The next data set relates to H460 cells. Nature of the data set: MTT assay, viability of H460 cells. Format: cell-based. The note with it: Homo sapiens, NCI-H460, 72 h, three days, read-out: IC50 against the viability. Here is the method:
as §2

The target of another data set is T1, AURKA (Homo sapiens, UniProt O14965).
T1 construct: purchased DiscoverX KINOMEscan
T1 sequence (O14965 whole entry): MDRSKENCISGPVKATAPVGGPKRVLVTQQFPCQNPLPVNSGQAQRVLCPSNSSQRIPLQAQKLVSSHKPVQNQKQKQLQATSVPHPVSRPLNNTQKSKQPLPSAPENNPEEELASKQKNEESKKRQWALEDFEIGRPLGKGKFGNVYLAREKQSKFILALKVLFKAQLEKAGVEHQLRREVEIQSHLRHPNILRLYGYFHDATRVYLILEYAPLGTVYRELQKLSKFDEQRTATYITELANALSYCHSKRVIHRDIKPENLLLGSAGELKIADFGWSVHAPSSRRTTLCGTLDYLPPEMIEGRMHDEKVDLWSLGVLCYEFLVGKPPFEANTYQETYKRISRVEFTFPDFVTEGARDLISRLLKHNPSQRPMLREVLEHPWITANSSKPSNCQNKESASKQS
Kind of data set: KINOMEscan competition binding assay. The following applies: LL6 at 10 μM; read-out: Percent Control. As to the method: […] To briefly summarize, Kd was measured by a competition binding assay that quantitatively measures the ability of a compound to compete with an immobilized ligand. […] […] See more details in the cited references [39]-[42] and see also at www.discoverx.com.

The subject of data set [4] is H1944 and A549 NSCLC cells. Kind of data set: Apoptosis (PARP cleavage, chromatin condensation, sub-G1 phase). The format is cell-based, human. The following applies: LL6 2.5 µM; LDB = linsitinib 2 µM, dasatinib 50 nM, bemcentinib 100 nM. Here is the method:
Before harvesting, the cells were stimulated with 10% FBS for 20 min. Total cell lysates were prepared with modified radioimmunoprecipitation assay lysis buffer (50 mM Tris-HCl [pH 7.4], 150 mM NaCl, 1 mM EDTA, 0.25% sodium deoxycholate, 1% Triton X-100, 100 mM NaF, 5 mM Na3VO4, 1 mM PMSF, 1 μg/mL aprotinin, 1 μg/mL leupeptin, and 1 μg/mL pepstatin). Equal amounts of protein (20 μg) were subjected to 8% SDS-PAGE and electrically transferred onto polyvinylidene difluoride membranes (Bio-Rad Laboratories, Hercules, CA, USA). Membranes were blocked with blocking buffer (3% BSA in Tris-buffered saline containing 0.1% Tween-20 [TBST]) for 1 h at room temperature. The membranes were incubated with primary antibodies diluted in 3% BSA in TBST (1:1,000) overnight at 4 °C, washed multiple times with TBST, and incubated with secondary antibodies diluted in 3% nonfat dry milk in TBST (1:5,000) for 1 h at room temperature. The membranes were washed multiple times with TBST and visualized using an enhanced chemiluminescence detection kit (Thermo Fisher Scientific). Densitometric analysis was performed using ImageJ software.

The test system of a further data set is A549 cells. Kind of data set: MTT assay, viability of A549 cells. The format is cell-based. The following applies: Homo sapiens. Here is the method:
as §2

A short description of the next data set: Water solubility. Format: physicochemical.
For a further data set, the system named is H1944 cells. Kind of data set: MTT assay, viability of H1944 cells. The format is cell-based. The note with it: Homo sapiens, NCI-H1944, 72 h, three days, read-out: IC50 against the viability. Here is the method:
as §2

Where two headings read alike, the source gives them in different places. Bounds are passed on as bounds.

Turning to `Nc1ncnc2c1c(-c1ccc(Cl)cc1)nn2CCn1cc(COc2ccc(Nc3nccc(Nc4cnc5ccccc5c4)n3)cc2)nn1` [LL6], the “migration of NSCLC cells” value in the data set on NSCLC cells was “effectively suppressed”. Further, the “Percent Control” value is on record as 26% in the data set with Src [1] (LL6 at 10 μM), 22% with AXL (LL6 at 10 μM) and 16% with IGF-1R (LL6 at 10 μM). Also, the dissociation constant (Kd) is 3.4 µM on Src [1] (Src, 11-point dose response, duplicate); 1600 nM on AXL (AXL, 11-point dose response, duplicate); 5 µM at IGF-1R (IGF-1R, 11-point dose response, duplicate). Also, the inhibition in the data set with Src [1] (Src, LL6 at 10 µM) is on record as over 65%; in the data set with AXL (AXL, LL6 at 10 µM), over 65%; in the data set on IGF-1R (IGF-1R, LL6 at 10 µM), over 65%. Further, the “tumor growth and weight” value in [2] (H1944 and A549 xenografts, 6 days per week for 2 weeks) is listed as “significantly reduced”. Also, the “expression of phosphorylated IGF-1R and Src in tumors” value in data set [2] (Western blot of xenograft tumors) is given as “substantially suppressed”. For the same compound, in [2] (xenograft-bearing mice), the body weight entry is given as “minimal changes”. Further, the glucose clearance entry in the data set “Glucose tolerance test” is recorded as “minimal difference”. Further, the “activation (phosphorylation) of Src” value in the data set with Src [3] was “efficiently suppressed”. The half-maximal inhibitory concentration (IC50) worked out at 3.73 µM in the data set on HCC15 cells; 3.43 µM in the data set on H460 cells; 6.63 µM with A549 cells (72 h, A549, MTT assay, three days, read-out: IC50 against the viability (Table S4)); 2.59 µM with A549 cells (A549, MTT assay, read-out: IC50 against the viability of A549 cells (Table S2)); 1020 nM with H1944 cells. For the same compound, on AURKA, the remaining binding at 10 µM is 48%. Further, the “proapoptotic effects (PARP cleavage, chromatin condensation, sub-G1 phase)” value in data set [4] is listed as “notably induced apoptosis”. The activity at 10 µM in the data set with A549 cells (72 h, A549, MTT assay, 10 μM, read-out: % cells growth at 10 μM) is 6.4%. The water solubility entry in the data set “Water solubility” is given as “poor”.

The record behind these values is paper PMC7778606, “Development of the phenylpyrazolo[3,4-d]pyrimidine-based, insulin-like growth factor receptor/Src/AXL-targeting small molecule kinase inhibitor” (Theranostics, 2021).
